Columns and labels:
rats = assay: Tail pinch test for analgesia in rats; type: in vivo; conditions: rat; for Analgesia (delay of response to tail pinch): 0.30 mg/kg i.v., cutoff 20 sec
Experimental: Analgesia was assayed in rats using the tail pinch test with simultaneous monitoring of capillary blood gases (pCO2). During this testing period respiratory depression values were also obtained. Male rats (Wistar Hannover 200-300 g) were anesthetized with 2% isoflurane (J. A. Webster, Inc., Sterling, Mass. The femoral artery was cannulated with PE50 tubing for blood sampling. The external jugular vein was also cannulated with Silastic tubing for drug injection. After surgery, anesthetic gases were removed and the rat was allowed to rest in a plastic restrainer for 60 minutes to establish baseline values of blood gases.
The compounds 1-6 were administered intravenous. Nociceptive response and respiratory values were obtained for a 1-2 hour period. The femoral artery cannulation was used to draw arterial blood into a syringe pre-wetted with heparin. Samples were then analyzed with a blood gas analyzer (Ph/Gas Analyzer Synthesis 25 Model, Instrumentation Laboratory) to assess respiratory depression effects. The volume of blood taken each time was 0.15 cc. The syringes were capped immediately and the blood gases analyzed within 5 minutes. The blood exposed to air at the tip of the syringe was expelled. The blood was mixed by gentle inversion and an aliquots of 0.10 cc was injected into the blood gas analyzer.
An artery clamp was placed on the tail (one inch from the tip of the tail) for a short duration until an escape response occurred (i.e. tail-flick or vocalization). The escape response latency was recorded by means of a stopwatch. A cutoff time of 20 sec. was used to prevent unnecessary tissue damage. […] The elapsed time to elicit a pain response was recorded as the tail pinch latency in seconds. Blood gases were monitored at approximately the same time points as the tail pinch test.
The ED50 values for analgesia potency and respiratory depression were determined to calculate the safety or therapeutic ratio, which is defined as the respiratory depression ED50 divided by analgesia ED50.

[1] = biological target: T1, Delta receptor, mouse vas deferens (Mus musculus, UniProt P32300); assay: Mouse vas deferens, inhibition of electrically induced contractions, delta; type: cell-based; conditions: read-out: Mouse Vas Deferens ED50 (nM) δ
T1 construct: Mouse vasa deferentia (MVD), CD-1 strain, Harlan, Raleigh, N.C.) were removed from mice; tissue Harlan, Raleigh, N.C; (animals); host or cells: mouse vas deferens, CD-1 strain
Experimental: The compound of formula (I) and compounds 1, 3, 4, 5 and 6 as identified above, were evaluated for in vitro opioid receptor activity in various receptor systems, including mouse vas deferens (Mouse Vas Deferens ED50), and guinea pig ileum (Guinea Pig Ileum ED50). The assay procedures used for such determinations of receptor activity are set out below.
In vitro bioassays: Mouse vasa deferentia (MVD), CD-1 strain, Harlan, Raleigh, N.C.) were removed from mice and suspended between platinum electrodes with 0.5 g of tension in organ bath chambers containing a modified Mg^++ free Krebs buffer of the following composition (millimolar): NaCl, 117.5; KCl, 4.75; CaCl2, 2.6; KH2PO4, 1.20; NaHCO3, 24.5; and glucose, 11. The buffer was saturated with 95% O2/5% CO2 and kept at 37° C. Tissues were stimulated at supramaximal voltage with 10-Hz pulse trains for 400-msec.; train interval 10 seconds; and 1.0 msec pulse duration at maximal voltage. Delta receptor activity was determined by adding appropriate concentrations of test compound to organ baths and allowing a maximal response before addition of the next higher concentration.
The ED50 values were extrapolated from curves showing the dose concentration plotted against the response (J. A. H. Lord, A. A. Waterfield, J. Hughes, H. W. Kosterlitz, Nature 267, 495, (1977)).

T1 sequence (P32300 whole entry): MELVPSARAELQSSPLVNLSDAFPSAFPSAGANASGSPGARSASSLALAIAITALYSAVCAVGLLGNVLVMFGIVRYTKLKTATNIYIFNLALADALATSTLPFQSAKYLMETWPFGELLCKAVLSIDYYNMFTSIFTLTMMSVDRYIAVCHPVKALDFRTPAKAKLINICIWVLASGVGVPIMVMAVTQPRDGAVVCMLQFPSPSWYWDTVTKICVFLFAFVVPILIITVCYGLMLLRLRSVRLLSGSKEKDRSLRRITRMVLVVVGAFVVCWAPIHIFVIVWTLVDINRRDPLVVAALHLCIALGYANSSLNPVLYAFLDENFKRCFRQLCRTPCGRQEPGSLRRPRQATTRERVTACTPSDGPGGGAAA

C=CCN1C[C@H](C)N([C@H](c2ccsc2)c2cccc(O)c2)C[C@H]1C [Compound 2, (−)3-((S)-((2S,5R)-4-allyl-2,5-dimethyl-1-piperazinyl)(3-thienyl)methyl)phenol]
Analgesia (delay of response to tail pinch) (rats; 4 min.): 20 s
Analgesia (delay of response to tail pinch) (rats; 8 min.): 20 s
Analgesia (delay of response to tail pinch) (rats; 32 min.): 12.3 s
Analgesic effect in words (rats; i.v., tail pinch, FIGS. 1-6): safely maintains analgesia for an extended time
ED50 (rats; intravenous, tail pinch, 20 sec cutoff): 0.046 mg/kg
EC50 [1]: 14.2 nM

Reference: patent US6924288B2, “Enantiomerically pure opioid diarylmethylpiperzine and methods of using same” (priority 2001, dated 2005)
